Experimental findings from patent US20200352914A1, “METHODS OF TREATING HYPERTENSION WITH ACTIVATORS OF TIE-2” (Aerpio Pharmaceuticals, Inc., priority 2019, published 2020) are described below.

One experiment relates to Sprague-Dawley rats. Description: MCT lung injury rat model of pulmonary hypertension (TABLE 30). The experiment is classed as in vivo. As to conditions: subset (n=3) of the monocrotaline group; s.c. injection at day 21. Here is the method: The MCT lung injury rat model was used to assess the effects of a Tie-2 activator disclosed herein, Compound 2, as a vasodilator of the pulmonary vasculature. At day 0, rats were treated with a single dose of 60 mg/kg monocrotaline (N=5) and compared to control rats (N=5), which were treated with vehicle. Animals from both groups underwent normal rodent care until day 21. At day 21, rats underwent simultaneous cannulation of the carotid and pulmonary artery/right ventricle. Arterial pressure was measured before and after subcutaneous injection of vehicle. Following the washout period of time, rats underwent the same measurements before and after subcutaneous injection of Compound 2. Hemodynamic endpoints included systemic pressure (via carotid catheterization) and pulmonary vascular pressure (right ventricular systolic pressure) vs. true pulmonary arterial pressure.
FIG. 31 panel A illustrates the effects of Compound 2 on mean arterial blood pressure (ABP), heart rate, and right ventricular pressure. Each time point represents a beat-to-beat analysis for each variable over a 2-min period, which were then averaged. […] All animals received Compound 2 at time=0 min.
After obtaining hemodynamic data, the rats were euthanized to assess the extent of RV hypertrophy, a marker of PH. […] RV hypertrophy was calculated based on the Fulton index using the following weight ratio: (RV/(LV+S)).

In the next experiment the test system is human endothelial cells. The experiment can be described thus: NO assay (nitrite in supernatant) in human endothelial cells. The experiment is classed as cell-based. Particulars: 0.3-30 μmol/L, 30 minutes. On the procedure: Confluent human endothelial cell monolayers were cultured overnight in MCDB131 containing 0.1% BSA and sepiapterin (10 μmol/L). The monolayers were then incubated with increasing concentrations of Compound 2 (0.3-30 μmol/L) or solvent (DMSO) for 30 minutes. In separate experiments, cells treated with a control siRNA or siRNA directed against ABL1 were cultured in MCDB131 containing 0.1% BSA and sepiapterin (10 μmol/L), and then treated with Compound 2 (30 μmol/L) or solvent (DMSO) for 30 minutes before the addition of Yoda1 (1 μmol/L) for an additional 30 minutes. HEK293 cells co-transfected with wild-type eNOS and wild-type ABL1, DN ABL1, or GFP (as a control) were cultured overnight in minimal essential medium containing 0.5% heat-inactivated FCS and sepiapterin (10 μmol/L). Aliquots of the culture media were collected before and after each treatment. Potential cell debris was removed by centrifugation of the media at 1000 rpm for 5 minutes. NO release was assessed by determining the amount of nitrite in the cell supernatants using a Nitric Oxide Analyzer after reaction with iodide and acetic acid under nitrogen at room temperature.
To investigate the role of VE-PTP on the regulation of eNOS, human endothelial cells were treated with increasing concentrations of Compound 2 (for 30 minutes) and the generation of NO was assessed using a NO analyzer.

Take `CCc1nc([C@H](Cc2ccc(NS(=O)(=O)O)cc2)NC(=O)[C@H](Cc2ccccc2)NC(=O)OC)cs1` [Compound 2]: the right ventricular pressure result in the experiment on Sprague-Dawley rats is “significant drop in right ventricular pressure”. The “basal NO production (nitrite in supernatant)” value in the experiment with human endothelial cells is recorded as “enhanced basal NO production”.
